Measured values taken from PMC8882856, “The affinity and selectivity of α‐adrenoceptor antagonists, antidepressants and antipsychotics for the human α2A, α2B, and α2C‐adrenoceptors and comparison with human α1 and β‐adrenoceptors” (Pharmacology Research & Perspectives, 2022).
Like-named read-outs stand apart in the source and are kept apart here.

Legend:
[1] = target: human β2‐adrenoceptor (Homo sapiens, UniProt P07550); type: binding; details: for IC50 (log) β2: printed as log IC50 bound (negative) in the Log KD β2 column, 3H-CGP12177
[2] = target: human β1‐adrenoceptor (Homo sapiens, UniProt P08588); details: for IC50 (log) β1: printed as log IC50 bound (negative) in the Log KD β1 column, 3H-CGP12177
[3] = target: T1, human α2A‐adrenoceptor (Homo sapiens, UniProt P08913); experiment: ^3H‐rauwolscine whole cell competition binding, CHO‐α2A cells
T1 sequence (P08913 1-465): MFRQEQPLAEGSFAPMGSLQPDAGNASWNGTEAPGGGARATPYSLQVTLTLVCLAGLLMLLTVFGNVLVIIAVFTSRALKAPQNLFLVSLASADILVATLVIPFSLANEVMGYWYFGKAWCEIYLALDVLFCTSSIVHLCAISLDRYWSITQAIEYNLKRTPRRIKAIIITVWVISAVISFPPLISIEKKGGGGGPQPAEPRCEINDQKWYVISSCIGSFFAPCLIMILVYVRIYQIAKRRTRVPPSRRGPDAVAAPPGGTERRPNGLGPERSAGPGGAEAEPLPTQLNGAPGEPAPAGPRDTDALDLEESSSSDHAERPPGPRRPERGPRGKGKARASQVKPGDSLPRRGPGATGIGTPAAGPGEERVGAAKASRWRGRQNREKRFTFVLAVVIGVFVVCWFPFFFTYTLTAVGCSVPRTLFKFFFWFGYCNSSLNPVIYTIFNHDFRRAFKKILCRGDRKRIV

[4] = target: T2, human α2B‐adrenoceptor (Homo sapiens, UniProt P18089); experiment: ^3H‐rauwolscine whole cell competition binding, CHO‐α2B cells; details: for IC50 (log) α2B: printed as log IC50 bound (negative) in the Log KD α2B column, 3H-rauwolscine
T2 sequence (P18089 1-450): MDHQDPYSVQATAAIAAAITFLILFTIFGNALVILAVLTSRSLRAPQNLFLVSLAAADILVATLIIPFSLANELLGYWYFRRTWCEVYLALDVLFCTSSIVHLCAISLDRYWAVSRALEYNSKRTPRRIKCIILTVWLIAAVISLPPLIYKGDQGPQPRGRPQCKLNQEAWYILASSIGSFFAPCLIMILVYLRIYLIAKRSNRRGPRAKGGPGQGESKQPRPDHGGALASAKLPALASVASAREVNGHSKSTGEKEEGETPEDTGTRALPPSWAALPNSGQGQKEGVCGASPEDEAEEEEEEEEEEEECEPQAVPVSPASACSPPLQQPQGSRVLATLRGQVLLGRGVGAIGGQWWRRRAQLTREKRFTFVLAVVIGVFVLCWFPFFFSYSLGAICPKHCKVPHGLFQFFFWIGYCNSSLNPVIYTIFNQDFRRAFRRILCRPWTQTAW

[5] = target: T3, human α2C‐adrenoceptor (Homo sapiens, UniProt P18825); experiment: ^3H‐rauwolscine whole cell competition binding, CHO‐α2C cells
T3 sequence (P18825 1-462): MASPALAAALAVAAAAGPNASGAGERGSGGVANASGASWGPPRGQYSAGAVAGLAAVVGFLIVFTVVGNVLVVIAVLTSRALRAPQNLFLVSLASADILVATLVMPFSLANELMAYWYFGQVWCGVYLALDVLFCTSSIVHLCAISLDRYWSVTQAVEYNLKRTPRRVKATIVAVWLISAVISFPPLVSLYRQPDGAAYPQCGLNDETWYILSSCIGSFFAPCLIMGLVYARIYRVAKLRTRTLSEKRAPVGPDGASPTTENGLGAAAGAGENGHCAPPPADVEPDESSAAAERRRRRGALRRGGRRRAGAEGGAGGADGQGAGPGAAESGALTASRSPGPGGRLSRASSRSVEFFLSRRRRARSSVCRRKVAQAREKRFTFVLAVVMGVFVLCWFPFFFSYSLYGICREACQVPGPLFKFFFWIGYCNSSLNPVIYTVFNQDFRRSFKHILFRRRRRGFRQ

[6] = fold, higher affinity at α2A than α2B, 1 = no selectivity
[7] = given as log KD (negative values), 3H-rauwolscine whole cell binding, CHO cells, mean ± s.e.mean
[8] = fold, higher affinity at α2C than α2A, 1 = no selectivity
[9] = fold, higher affinity at α2C than α2B, 1 = no selectivity
[10] = log KD (negative), apparent KD: maximum concentration inhibited most but not all specific binding, IC50 from extrapolated curve

Chain of human β1‐adrenoceptor (P08588 whole entry): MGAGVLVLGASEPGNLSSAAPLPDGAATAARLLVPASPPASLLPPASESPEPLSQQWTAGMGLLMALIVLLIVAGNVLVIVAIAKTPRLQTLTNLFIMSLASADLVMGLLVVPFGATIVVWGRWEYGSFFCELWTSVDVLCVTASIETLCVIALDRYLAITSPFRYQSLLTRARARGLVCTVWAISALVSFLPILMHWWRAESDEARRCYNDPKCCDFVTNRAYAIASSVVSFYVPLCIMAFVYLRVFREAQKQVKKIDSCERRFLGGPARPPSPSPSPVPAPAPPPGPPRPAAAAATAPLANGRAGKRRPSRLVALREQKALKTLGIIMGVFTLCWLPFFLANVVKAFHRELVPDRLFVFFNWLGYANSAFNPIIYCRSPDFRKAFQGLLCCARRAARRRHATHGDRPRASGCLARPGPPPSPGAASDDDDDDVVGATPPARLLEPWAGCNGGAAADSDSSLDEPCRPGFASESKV
Chain of human β2‐adrenoceptor (P07550 whole entry): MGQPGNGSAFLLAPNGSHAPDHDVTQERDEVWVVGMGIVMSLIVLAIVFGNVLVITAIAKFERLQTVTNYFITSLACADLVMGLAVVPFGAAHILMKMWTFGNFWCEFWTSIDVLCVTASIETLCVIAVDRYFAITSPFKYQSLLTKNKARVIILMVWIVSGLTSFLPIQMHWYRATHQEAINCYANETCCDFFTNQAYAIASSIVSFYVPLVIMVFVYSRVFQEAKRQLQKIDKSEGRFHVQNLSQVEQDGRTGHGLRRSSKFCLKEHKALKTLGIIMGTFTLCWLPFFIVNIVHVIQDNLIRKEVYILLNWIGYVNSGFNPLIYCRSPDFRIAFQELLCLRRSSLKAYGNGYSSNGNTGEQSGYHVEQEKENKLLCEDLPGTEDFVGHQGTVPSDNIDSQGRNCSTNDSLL

COc1ccccc1N1CCN(CC2CN3C(=O)N(C)c4ccccc4C3=N2)CC1 (centres unmarked) [2-MPMDQ]
IC50 (log) β2 [1]: IC50>-5
IC50 (log) β1 [2]: IC50>-5
Selectivity ratio α2A vs α2B (α2A-selective) [3, 6]: 7.1
Log KD α2A [3, 7]: -6.79 ± 0.04
Log KD α2B [4, 7]: -5.94 ± 0.09
Selectivity ratio α2A vs α2C (α2C-selective) [5, 8]: 5.1
Selectivity ratio α2B vs α2C (α2C-selective) [5, 9]: 36.3
Log KD α2C [5, 7]: -7.50 ± 0.02

O=C1Nc2ccccc2C2=NC(CN3CCN(c4ccccc4)CC3)CN12 (centres unmarked) [2-PMDQ]
IC50 (log) β2 [1]: IC50>-4
Log KD β1 ([2]; given as log KD (negative values), 3H-CGP12177 whole cell binding, CHO cells, mean ± s.e.mean): No binding to -4
Selectivity ratio α2A vs α2B (α2A-selective) [3, 6]: 4.9
Log KD α2A [3, 7]: -6.83 ± 0.05
Log KD α2B [4, 7]: -6.14 ± 0.08
Selectivity ratio α2A vs α2C (α2C-selective) [5, 8]: 1.7
Selectivity ratio α2B vs α2C (α2C-selective) [5, 9]: 8.5
Log KD α2C [5, 7]: -7.07 ± 0.02

COC(=O)C1=C(C)NC(C)=C(C(=O)OCCCN2CCC(c3ccccc3)(c3ccccc3)CC2)[C@H]1c1cccc([N+](=O)[O-])c1 [2‐niguldipine]
IC50 [1]: > 100 µM

COc1ccccc1N1CCN(CCCNc2c(C)c(=O)n(C)c(=O)n2C)CC1 [5-methyl-urapidil]
Log KD β2 [1]: -5.00 ± 0.07
Log KD α2A [3, 7]: -5.18 ± 0.05
Log KD α2B [4, 7]: -5.17 ± 0.05
Log KD α2C [5, 7]: -5.81 ± 0.07

COc1ccccc1N1CCN(CCCNc2c(C)c(=O)n(C)c(=O)n2C)CC1 [5‐methyl‐urapidil]
Log KD β2 [1]: −5.00 ± 0.07
Log KD α2A [3]: −5.18 ± 0.05
Log KD α2B [4]: −5.17 ± 0.05
Log KD α2C [5]: −5.81 ± 0.07

COc1ccccc1N1CCN(CCN2C(=O)c3ccccc3C(C)(C)C2=O)CC1 [ARC 239]
IC50 (log) β2 [1]: IC50>-5
IC50 (log) β1 [2]: IC50>-5
Log KD α2A [3, 7]: -5.99 ± 0.06
Selectivity ratio α2A vs α2B (α2B-selective column) ([4]; fold, higher affinity at α2B than α2A, 1 = no selectivity): 21.4
Selectivity ratio α2B vs α2C (α2B-selective column) ([4]; fold, higher affinity at α2B than α2C, 1 = no selectivity): 1.2
Log KD α2B [4, 7]: -7.32 ± 0.14
Selectivity ratio α2A vs α2C (α2C-selective) [5, 8]: 18.2
Log KD α2C [5, 7]: -7.25 ± 0.14

CC(C)(C)NCC(O)COc1cccc2[nH]c(=O)[nH]c12 (centres unmarked) [CGP12177]
IC50 [3]: > 1000 µM
Log KD α2B [4, 7]: No bind to -3
Binding at α2B (result in words) ([4]; up to log concentration -3): No binding -3
IC50 [5]: > 1000 µM

Cc1ccc(OCC(O)C(C)NC(C)C)c2c1CCC2 (centres unmarked) [ICI 118551]
Log KD α2A [3, 7]: -5.03 ± 0.03
IC50 (log) α2B [4]: IC50>-4
Log KD α2C [5, 7]: -5.05 ± 0.04

CN1CC[C@]2(CCN3CCc4c(oc5ccccc45)[C@@H]3C2)N(C)C1=O [MK-912]
IC50 (log) β2 [1]: IC50>-4
IC50 (log) β1 [2]: IC50>-4
Log KD α2A [3]: -8.71 ± 0.05
Selectivity ratio α2A vs α2B (α2A-selective) [3]: 3.6
Log KD α2B [4, 7]: -8.16 ± 0.10
Log KD α2C [5]: -9.82 ± 0.11
Selectivity ratio α2A vs α2C (α2C-selective) [5]: 12.9
Selectivity ratio α2B vs α2C (α2C-selective) [5]: 45.7

CC(C)(Cc1c[nH]c2ccc(Cl)cc12)NCCOc1ccccc1OCC1CC1 [RS17053]
Log KD β2 [1]: −6.42 ± 0.06
Log KD β1 [2]: −5.44 ± 0.04
Log KD α2A [3]: −6.20 ± 0.11
Selectivity ratio α2A vs α2B (higher affinity for α2A) ([3]; ratio of KD values): 3.5
Log KD α2B [4]: −5.65 ± 0.07
Log KD α2C [5]: −6.35 ± 0.08
Selectivity ratio α2A vs α2C (higher affinity for α2C) ([5]; ratio of KD values): 1.4
Selectivity ratio α2B vs α2C (higher affinity for α2C) ([5]; ratio of KD values): 5.0

COc1cc2nc(N3CCN(C(=O)COc4c(OC)cccc4C(C)C)CC3)nc(N)c2cc1OC [Rec15-2615]
IC50 (log) β2 [1]: IC50>-4
IC50 (log) β1 [2]: IC50>-4
Log KD α2A, apparent affinity (app) [3, 10]: -5.53 ± 0.12^app
IC50 (log) α2B [4]: IC50>-4.5
Selectivity ratio α2A vs α2C (α2C-selective) [5, 8]: 10.7
Log KD α2C [5, 7]: -6.56 ± 0.13

CC(C)(C)NC[C@H](O)COc1cccc2[nH]c(C#N)cc12 [S-cyanopindolol]
Log KD α2A [3, 7]: -5.56 ± 0.10
Log KD α2B, apparent affinity (app) [4, 10]: -4.82 ± 0.10^app
Log KD α2C [5, 7]: -6.15 ± 0.07
